According to US11759455B2, “Substituted 1H-imidazo[4,5-b]pyridin-2(3H)-ones and their use as GLUN2B receptor modulators” (JANSSEN PHARMACEUTICA NV, priority 2016, dated 2023):
Where two headings read alike, the source gives them in different places.

Target: T1, human GluN1/GluN2B NMDA receptors (Homo sapiens, UniProt Q13224)
T1 construct: expressed in transfected cells
Test: Cell-based calcium flux (FLIPR) assay on cloned human NR1/NR2B ion channels expressed in mammalian cells (standard and HTS buffer variants);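 note: stable Tet-On inducible cell line, Ca2+ influx triggered by glutamate at about EC40 plus 10 µM glycine, fluorescent dye read-out over 5 min, normalized to control wells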

[1] = standard assay buffer (0.5 mM MgCl2 dye loading; 137 mM NaCl, 4 mM KCl assay buffer), human GluN1/GluN2B cells, read-out: NR2B IC50 (μM) standard assay
[2] = HTS assay buffer (1.5 mM MgCl2 in dye loading buffer; 150 mM NaCl, 3 mM KCl in assay buffer), human GluN1/GluN2B, read-out: NR2B IC50 (μM) HTS assay
[3] = standard assay buffer (0.5 mM MgCl2 in dye loading buffer; 137 mM NaCl, 4 mM KCl in assay buffer), human GluN1/GluN2B, read-out: NR2B IC50 (μM) standard assay

T1 sequence (Q13224 27-1484, other chains not shown): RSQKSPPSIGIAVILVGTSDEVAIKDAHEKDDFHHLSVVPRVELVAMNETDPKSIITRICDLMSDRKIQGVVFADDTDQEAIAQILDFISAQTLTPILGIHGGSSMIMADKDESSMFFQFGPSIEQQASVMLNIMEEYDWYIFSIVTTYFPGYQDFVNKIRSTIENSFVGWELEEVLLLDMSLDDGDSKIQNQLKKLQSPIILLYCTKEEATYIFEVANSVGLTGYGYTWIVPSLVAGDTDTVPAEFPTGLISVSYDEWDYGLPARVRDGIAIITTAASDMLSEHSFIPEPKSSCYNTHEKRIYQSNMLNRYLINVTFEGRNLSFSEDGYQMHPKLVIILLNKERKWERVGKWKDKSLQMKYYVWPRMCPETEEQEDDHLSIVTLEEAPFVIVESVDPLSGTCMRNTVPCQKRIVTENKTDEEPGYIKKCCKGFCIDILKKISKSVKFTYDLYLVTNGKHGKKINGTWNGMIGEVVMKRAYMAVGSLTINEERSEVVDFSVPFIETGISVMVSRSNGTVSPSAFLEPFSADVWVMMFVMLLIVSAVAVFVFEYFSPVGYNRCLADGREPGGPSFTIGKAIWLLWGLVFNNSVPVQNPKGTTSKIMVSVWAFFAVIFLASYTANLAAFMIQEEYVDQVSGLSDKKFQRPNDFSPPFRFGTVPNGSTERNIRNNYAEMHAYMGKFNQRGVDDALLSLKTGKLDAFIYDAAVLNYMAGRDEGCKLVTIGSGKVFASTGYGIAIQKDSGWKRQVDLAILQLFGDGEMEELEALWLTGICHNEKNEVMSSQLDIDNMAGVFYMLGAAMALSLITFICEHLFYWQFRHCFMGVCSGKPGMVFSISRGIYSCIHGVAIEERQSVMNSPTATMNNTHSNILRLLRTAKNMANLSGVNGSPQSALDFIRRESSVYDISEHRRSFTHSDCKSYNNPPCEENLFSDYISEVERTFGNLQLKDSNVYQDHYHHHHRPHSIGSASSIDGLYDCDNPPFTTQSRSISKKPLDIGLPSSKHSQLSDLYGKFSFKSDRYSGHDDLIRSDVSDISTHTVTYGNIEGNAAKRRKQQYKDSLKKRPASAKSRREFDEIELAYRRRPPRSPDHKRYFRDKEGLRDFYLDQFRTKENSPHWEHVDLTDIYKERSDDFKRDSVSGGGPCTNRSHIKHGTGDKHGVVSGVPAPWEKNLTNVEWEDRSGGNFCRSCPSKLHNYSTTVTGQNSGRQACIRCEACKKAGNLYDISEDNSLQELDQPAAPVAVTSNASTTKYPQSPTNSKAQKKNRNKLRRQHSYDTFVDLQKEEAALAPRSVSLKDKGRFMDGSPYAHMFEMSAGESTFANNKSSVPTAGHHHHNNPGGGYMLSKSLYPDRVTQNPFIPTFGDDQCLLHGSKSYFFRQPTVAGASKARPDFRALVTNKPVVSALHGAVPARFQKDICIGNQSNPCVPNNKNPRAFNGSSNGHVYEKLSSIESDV

| Compound | IC50 [1] [µM] | other results |
| --- | --- | --- |
| Cc1ncc(-c2cnc3c(c2)n(CC(=O)N(C)C)c(=O)n3C)s1 [Example 114, N,N-Dimethyl-2-[3-methyl-6-(2-methylthiazol-5-yl)-2-oxo-imidazo[4,5-b]pyridin-1-yl]acetamide] | 11.7 |  |
| O=C(O)Cn1c(=O)[nH]c2ncc(-c3cccc(C(F)(F)F)c3)cc21 [Example 135, 2-[2-Oxo-6-[3-(trifluoromethyl)phenyl]-3H-imidazo[4,5-1D]pyridin-1-yl]acetic Acid] | 6 |  |
| COc1cccc(-c2cnc3[nH]c(=O)n(CC(=O)NC4CC4)c3c2)c1 [Example 450, N-Cyclopropyl-2-[6-(3-methoxyphenyl)-2-oxo-3H-imidazo[4,5-b]pyridin-1-yl]acetamide] |  | IC50 [2]: 1.76 µM |
| Cc1ccncc1Cn1c(=O)[nH]c2ncc(-c3cccc(F)c3)cc21 [Example 276, 6-(3-Fluorophenyl)-1-[(4-methyl-3-pyridyl)methyl]-3H-imidazo[4,5-b]pyridin-2-one] | 0.034 |  |
| O=c1[nH]c2ncc(-c3cccc(C(F)(F)F)c3)cc2n1Cc1cccnn1 [Example 232, 1-(Pyridazin-3-ylmethyl)-6-[3-(trifluoromethyl)phenyl]-3H-imidazo[4,5-b]pyridin-2-one] | 0.017 |  |
| COc1cc(F)ccc1-c1cnc2[nH]c(=O)n(Cc3cc(C)on3)c2c1 [Example 520, 6-(4-Fluoro-2-methoxy-phenyl)-1-[(5-methylisoxazol-3-yl)methyl]-3H-imidazo[4,5-b]pyridin-2-one] |  | IC50 [3]: 0.019 µM |
| O=C(Cn1c(=O)[nH]c2ncc(-c3cccc(C(F)(F)F)c3)cc21)C1CCC1 [Example 262, 1-(2-cyclobutyl-2-oxo-ethyl)-6-[3-(trifluoromethyl)phenyl]-3H-imidazo[4,5-b]pyridin-2-one] | 0.308 |  |
| CCOc1ccc(F)cc1-c1cnc2[nH]c(=O)n(CC(=O)NCCOC)c2c1 [Example 443, 2-[6-(2-Ethoxy-5-fluoro-phenyl)-2-oxo-3H-imidazo[4,5-b]pyridin-1-yl]-N-(2-methoxyethyl)acetamide] |  | IC50 [2]: 1.32 µM |
| Cn1cc(Cn2c(=O)n(C)c3ncc(-c4cccc(C(F)(F)F)c4)cc32)nn1 [Example 552, 3-Methyl-1-[(1-methyltriazol-4-yl)methyl]-6-[3-(trifluoromethyl)phenyl]imidazo[4,5-b]pyridin-2-one] |  | IC50 [3]: 0.13 µM |
| NC(=O)Cn1c(=O)[nH]c2ncc(-c3ccc(F)c(Cl)c3)cc21 [Example 434, 2-[6-(3-Chloro-4-fluoro-phenyl)-2-oxo-3H-imidazo[4,5-b]pyridin-1-yl]acetamide] |  | IC50 [3]: 0.583 µM |
| Cn1c(=O)n(Cc2cccnc2)c2cc(-c3cc(F)cc(F)c3)cnc21 [Example 354, 6-(3,5-Difluorophenyl)-3-methyl-1-(3-pyridylmethyl)imidazo[4,5-b]pyridin-2-one] |  | IC50 [3]: 1.03 µM |
| COc1ccc(-c2cnc3[nH]c(=O)n(Cc4cccc(F)c4)c3c2)c(OC)c1 [Example 496, 6-(2,4-Dimethoxyphenyl)-1-[(3-fluorophenyl)methyl]-3H-imidazo[4,5-b]pyridin-2-one] |  | IC50 [2]: 2.79 µM |
| Cn1c(=O)n(Cc2cncc(F)c2)c2cc(-c3ccc(F)c(OC(F)F)c3)cnc21 [Example 547, 6-[3-(Difluoromethoxy)-4-fluoro-phenyl]-1-[(5-fluoro-3-pyridyl)methyl]-3-methyl-imidazo[4,5-b]pyridin-2-one] |  | IC50 [3]: 0.036 µM |
| CCOc1ccccc1-c1cnc2[nH]c(=O)n(Cc3cccc(F)c3)c2c1 [Example 497, 6-(2-Ethoxyphenyl)-1-[(3-fluorophenyl)methyl]-3H-imidazo[4,5-b]pyridin-2-one] |  | IC50 [2]: 1.95 µM |
| Cn1c(=O)n(CC(=O)N2CC(F)(F)C2)c2cc(-c3ccc(Cl)c(OC(F)F)c3)cnc21 [Example 594, 6-[4-Chloro-3-(difluoromethoxy)phenyl]-1-[2-(3,3-difluoroazetidin-1-yl)-2-oxo-ethyl]-3-methyl-imidazo[4,5-b]pyridin-2-one] |  | IC50 [3]: 0.082 µM |
| Cc1ccncc1Cn1c(=O)[nH]c2ncc(-c3cccc(C(F)(F)F)c3)cc21 [Example 313, 1-[(4-Methyl-3-pyridyl)methyl]-6-[3-b]pyridin-2-one] | 0.018 |  |
| COc1ccc(Cn2c(=O)[nH]c3ncc(-c4cccc(C(F)(F)F)c4)cc32)cn1 [Example 210, 1-[(6-Methoxy-3-pyridyl)methyl]-6-[3-(trifluoromethyl)phenyl]-3H-imidazo[4,5-b]pyridin-2-one] | 1.62 |  |
| CN(C)c1cccc(-c2cnc3[nH]c(=O)n(Cc4cccc(F)c4)c3c2)c1 [Example 500, 6-[3-(Dimethylamino)phenyl]-1-[(3-fluorophenyl)methyl]-3H-imidazo[4,5-b]pyridin-2-one] |  | IC50 [3]: 6.08 µM |
| O=c1[nH]c2ncc(-c3cccc(C(F)(F)F)c3)cc2n1Cc1ccccn1 [Example 228, 1-(2-Pyridylmethyl)-6-[3-(trifluoromethyl)phenyl]-3H-imidazo[4,5-b]pyridin-2-one] | 0.083 |  |
| CCC(=O)Cn1c(=O)n(C)c2ncc(-c3ccc(F)c(C)c3F)cc21 [Example 391, 6-(2,4-Difluoro-3-methyl-phenyl)-3-methyl-1-(2-oxobutyl)imidazo[4,5-b]pyridin-2-one] |  | IC50 [3]: 0.026 µM |
| Cn1c(=O)n(CC(=O)N2CC(F)C2)c2cc(-c3ccc(Cl)c(OC(F)F)c3)cnc21 [Example 593, 6-[4-Chloro-3-(difluoromethoxy)phenyl]-1-[2-(3-fluoroazetidin-1-yl)-2-oxo-ethyl]-3-methyl-imidazo[4,5-b]pyridin-2-one] |  | IC50 [3]: 0.053 µM |
| Cc1cccc(-c2cnc3c(c2)n(CC(=O)N2CC(F)C2)c(=O)n3C)c1 [Example 404, 1-[2-(3-Fluoroazetidin-1-yl)-2-oxo-ethyl]-3-methyl-6-(m-tolyl)imidazo[4,5-b]pyridin-2-one] |  | IC50 [3]: 0.05 µM |
| COCCn1c(=O)[nH]c2ncc(-c3ccc(F)cc3C)cc21 [Example 2, 6-(4-Fluoro-2-methyl-phenyl)-1-(2-methoxyethyl)-3H-imidazo[4,5-b]pyridin-2-one] |  | IC50 (HTS assay buffer (1.5 mM MgCl2 dye loading; 150 mM NaCl, 3 mM KCl assay buffer), human GluN1/GluN2B cells, read-out: NR2B IC50 (μM) HTS assay): 2.06 µM |
| COCCNC(=O)Cn1c(=O)[nH]c2ncc(-c3cccc(C(F)(F)F)c3)cc21 [Example 442, N-(2-Methoxyethyl)-2-[2-oxo-6-[3-(trifluoromethyl)phenyl]-3H-imidazo[4,5-b]pyridin-1-yl]acetamide] |  | IC50 [2]: 0.197 µM |
| O=C(Cn1c(=O)[nH]c2ncc(-c3ccc(C(F)(F)F)s3)cc21)N1CC(F)C1 [Example 578, 1-[2-(3-Fluoroazetidin-1-yl)-2-oxo-ethyl]-6-[5-(trifluoromethyl)-2-thienyl]-3H-imidazo[4,5-b]pyridin-2-one] |  | IC50 [3]: 0.014 µM |
| O=c1[nH]c2ncc(-c3cccc(C(F)(F)F)c3)cc2n1Cc1nn[nH]n1 [Example 236, 1-(2H-Tetrazol-5-ylmethyl)-6-[3-(trifluoromethyl)phenyl]-3H-imidazo[4,5-b]pyridin-2-one] | > 5 |  |
| O=C(Cn1c(=O)[nH]c2ncc(-c3ccc(Cl)cc3)cc21)NC1CC1 [Example 453, 2-[6-(4-Chlorophenyl)-2-oxo-3H-imidazo[4,5-b]pyridin-1-yl]-N-cyclopropyl-acetamide] |  | IC50 [2]: 0.1 µM |

Second part, led by results:

| IC50 [1] [µM] | Compound | other results |
| --- | --- | --- |
| 1.22 | CC1CCN(CCn2c(=O)[nH]c3ncc(-c4cccc(C(F)(F)F)c4)cc32)C1 (centres unmarked) [Example 164, 1-[2-(3-Methylpyrrolidin-1-yl)ethyl]-6-[3-(trifluoromethyl)phenyl]-3H-imidazo[4,5-b]pyridin-2-one] |  |
| 0.017 | CN(C)C(=O)Cn1c(=O)n(C)c2ncc(-c3ccc(C(F)F)s3)cc21 [Example 94, 2-[6-[5-(Difluoromethyl)-2-thienyl]-3-methyl-2-oxo-imidazo[4,5-b]pyridin-1-yl]-N,N-dimethyl-acetamide] |  |
| 0.011 | CCC(=O)Cn1c(=O)[nH]c2ncc(-c3ccc(F)c(C)c3F)cc21 [Example 30, 6-(2,4-Difluoro-3-methyl-phenyl)-1-(2-oxobutyl)-3H-imidazo[4,5-b]pyridin-2-one] |  |
| 0.077 | Cc1cc(-c2cnc3[nH]c(=O)n(Cc4cnccc4C)c3c2)ccc1F [Example 277, 6-(4-Fluoro-3-methyl-phenyl)-1-[(4-methyl-3-pyridyl)methyl]-3H-imidazo[4,5-b]pyridin-2-one] |  |
| 2 | Cn1c(=O)n(Cc2ccncc2)c2cc(-c3cccc(C(F)(F)F)c3)cnc21 [Example 250, 3-Methyl-1-(4-pyridylmethyl)-6-[3-(trifluoromethyl)phenyl]imidazo[4,5-b]pyridin-2-one] |  |
| 0.093 | Cc1nnc(Cn2c(=O)n(C)c3ncc(-c4cccc(C(F)(F)F)c4)cc32)o1 [Example 75, 3-Methyl-1-[(5-methyl-1,3,4-oxadiazol-2-yl)methyl]-6-[3-(trifluoromethyl)phenyl]imidazo[4,5-b]pyridin-2-one] |  |
| 0.159 | CCOC(=O)Cn1c(=O)n(C)c2ncc(-c3cccc(C(F)(F)F)c3)cc21 [Example 136, Ethyl 2-[3-methyl-2-oxo-6-[3-(trifluoromethyl)phenyl]imidazo[4,5-b]pyridin-1-yl]acetate] |  |
| 0.009 | Cc1cc(-c2cnc3c(c2)n(Cc2cccnn2)c(=O)n3C)ccc1F [Example 50, 6-(4-Fluoro-3-methyl-phenyl)-3-methyl-1-(pyridazin-3-ylmethyl)imidazo[4,5-b]pyridin-2-one] |  |
| 1.4 | Cn1c(=O)n(Cc2ccccn2)c2cc(-c3cccc(F)c3)cnc21 [Example 53, 6-(3-Fluorophenyl)-3-methyl-1-(2-pyridylmethyl)imidazo[4,5-b]pyridin-2-one] |  |
| 0.576 | Cc1c(F)ccc(-c2cnc3[nH]c(=O)n(Cc4ccccn4)c3c2)c1F [Example 280, 6-(2,4-Difluoro-3-methyl-phenyl)-1-(2-pyridylmethyl)-3H-imidazo[4,5-b]pyridin-2-one] |  |
| 0.07 | O=C(Cn1c(=O)[nH]c2ncc(-c3cccc(C(F)(F)F)c3)cc21)NC1CCC1 [Example 190, N-Cyclobutyl-2-[2-oxo-6-[3-(trifluoromethyl)phenyl]-3H-imidazo[4,5-b]pyridin-1-yl]acetamide] |  |
